This note sets out measurements from ChEMBL document CHEMBL5291721, “A preclinical secondary pharmacology resource illuminates target-adverse drug reaction associations of marketed drugs” (Nat Commun, 2023).

Where only a bound is given, the exact number is not on record here.

The target of test [1] is T1, Neuropeptide Y receptor type 1 (Homo sapiens, UniProt P25929).
T1 sequence (P25929 whole entry): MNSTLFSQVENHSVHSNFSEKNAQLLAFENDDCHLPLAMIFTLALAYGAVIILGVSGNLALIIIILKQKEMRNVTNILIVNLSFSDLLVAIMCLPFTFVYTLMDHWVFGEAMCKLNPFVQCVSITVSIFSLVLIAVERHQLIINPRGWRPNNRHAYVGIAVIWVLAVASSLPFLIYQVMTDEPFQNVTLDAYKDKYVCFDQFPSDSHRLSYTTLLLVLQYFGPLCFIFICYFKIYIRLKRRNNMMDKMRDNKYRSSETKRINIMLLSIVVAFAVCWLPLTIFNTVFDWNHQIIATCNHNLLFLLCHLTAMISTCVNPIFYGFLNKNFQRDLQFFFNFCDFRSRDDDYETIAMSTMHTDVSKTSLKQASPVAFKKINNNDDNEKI

The target in test [2] is Melanocortin receptor 3 (Homo sapiens, UniProt P41968).
In test [3] the target is 5-hydroxytryptamine receptor 2B (Homo sapiens, UniProt P41595). The class given is functional, cell-based.
In test [4] the target is T2, 5-hydroxytryptamine receptor 2C (Homo sapiens, UniProt P28335).
T2 sequence (P28335 whole entry): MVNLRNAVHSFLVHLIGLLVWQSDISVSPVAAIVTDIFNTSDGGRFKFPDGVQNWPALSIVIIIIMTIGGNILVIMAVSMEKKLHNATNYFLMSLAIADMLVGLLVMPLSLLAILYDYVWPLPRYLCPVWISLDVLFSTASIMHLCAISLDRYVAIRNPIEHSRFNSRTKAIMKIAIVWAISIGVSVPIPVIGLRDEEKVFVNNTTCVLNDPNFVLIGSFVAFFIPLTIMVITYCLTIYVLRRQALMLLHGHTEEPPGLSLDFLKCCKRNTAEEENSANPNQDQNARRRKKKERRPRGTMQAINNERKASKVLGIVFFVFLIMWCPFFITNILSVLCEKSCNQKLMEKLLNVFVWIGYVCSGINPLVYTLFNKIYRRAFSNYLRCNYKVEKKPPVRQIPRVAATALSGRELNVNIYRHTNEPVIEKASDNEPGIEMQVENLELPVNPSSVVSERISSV

Test [5] concerns the target Sodium-dependent noradrenaline transporter (Homo sapiens, UniProt P23975).
The target of test [6] is T3, Type-1 angiotensin II receptor (Homo sapiens, UniProt P30556).
T3 sequence (P30556 whole entry): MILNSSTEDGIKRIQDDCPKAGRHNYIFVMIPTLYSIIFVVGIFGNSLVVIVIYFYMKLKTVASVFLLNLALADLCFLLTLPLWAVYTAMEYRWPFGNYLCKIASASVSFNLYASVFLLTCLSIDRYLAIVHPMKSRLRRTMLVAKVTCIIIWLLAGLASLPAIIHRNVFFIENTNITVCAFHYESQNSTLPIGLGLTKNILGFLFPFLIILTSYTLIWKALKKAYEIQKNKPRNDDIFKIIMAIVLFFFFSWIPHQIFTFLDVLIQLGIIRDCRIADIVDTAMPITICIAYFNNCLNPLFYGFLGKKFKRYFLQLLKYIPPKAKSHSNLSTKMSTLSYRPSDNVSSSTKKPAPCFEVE

The target of test [7] is D(1A) dopamine receptor (Homo sapiens, UniProt P21728). The class given is functional, cell-based.
Test [8] concerns the target Vasopressin V1a receptor (Homo sapiens, UniProt P37288).
The target of test [9] is T4, Equilibrative nucleoside transporter 1 (Homo sapiens, UniProt Q99808).
T4 sequence (Q99808 whole entry): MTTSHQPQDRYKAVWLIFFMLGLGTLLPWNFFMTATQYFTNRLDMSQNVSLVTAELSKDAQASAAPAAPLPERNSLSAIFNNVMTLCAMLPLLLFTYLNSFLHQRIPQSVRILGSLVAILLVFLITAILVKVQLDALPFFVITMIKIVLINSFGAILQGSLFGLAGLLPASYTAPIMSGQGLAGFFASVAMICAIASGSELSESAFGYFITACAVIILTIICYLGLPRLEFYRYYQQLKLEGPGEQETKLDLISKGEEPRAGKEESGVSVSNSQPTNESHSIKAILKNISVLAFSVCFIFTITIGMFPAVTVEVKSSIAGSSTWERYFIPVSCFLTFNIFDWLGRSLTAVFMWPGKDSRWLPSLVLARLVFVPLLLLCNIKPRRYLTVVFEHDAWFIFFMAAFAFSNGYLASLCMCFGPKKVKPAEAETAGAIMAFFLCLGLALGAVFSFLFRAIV
Further: assay procedure not described here.

Sequence of Sodium-dependent noradrenaline transporter (P23975 whole entry): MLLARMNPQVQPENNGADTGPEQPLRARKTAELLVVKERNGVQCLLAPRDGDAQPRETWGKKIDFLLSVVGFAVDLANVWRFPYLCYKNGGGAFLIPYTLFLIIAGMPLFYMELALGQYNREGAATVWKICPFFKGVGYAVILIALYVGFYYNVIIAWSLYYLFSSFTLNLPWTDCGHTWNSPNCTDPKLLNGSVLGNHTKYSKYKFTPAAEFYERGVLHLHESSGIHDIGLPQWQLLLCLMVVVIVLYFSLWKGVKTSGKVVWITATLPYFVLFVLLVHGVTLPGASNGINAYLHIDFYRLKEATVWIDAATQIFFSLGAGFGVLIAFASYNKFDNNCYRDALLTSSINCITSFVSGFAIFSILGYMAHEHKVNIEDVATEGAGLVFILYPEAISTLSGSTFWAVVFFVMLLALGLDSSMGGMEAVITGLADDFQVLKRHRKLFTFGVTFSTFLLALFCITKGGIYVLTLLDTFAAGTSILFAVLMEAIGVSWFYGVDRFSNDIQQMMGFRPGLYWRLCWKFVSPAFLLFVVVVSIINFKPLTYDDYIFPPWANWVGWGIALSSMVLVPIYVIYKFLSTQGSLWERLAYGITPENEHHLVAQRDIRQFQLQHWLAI
Sequence of 5-hydroxytryptamine receptor 2B (P41595 whole entry): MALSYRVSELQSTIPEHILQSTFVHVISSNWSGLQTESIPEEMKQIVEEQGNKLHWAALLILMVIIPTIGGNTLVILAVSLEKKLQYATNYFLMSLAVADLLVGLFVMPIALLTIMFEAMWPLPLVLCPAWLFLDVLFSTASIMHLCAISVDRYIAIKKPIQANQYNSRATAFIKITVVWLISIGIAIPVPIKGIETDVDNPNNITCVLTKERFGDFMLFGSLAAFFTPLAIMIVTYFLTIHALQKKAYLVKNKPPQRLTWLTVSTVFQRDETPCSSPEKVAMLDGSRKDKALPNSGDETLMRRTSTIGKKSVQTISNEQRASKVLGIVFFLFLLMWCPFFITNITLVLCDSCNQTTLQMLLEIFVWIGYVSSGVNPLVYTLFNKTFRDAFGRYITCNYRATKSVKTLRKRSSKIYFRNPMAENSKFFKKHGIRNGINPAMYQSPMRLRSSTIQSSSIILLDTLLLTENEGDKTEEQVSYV
Sequence of Melanocortin receptor 3 (P41968 whole entry): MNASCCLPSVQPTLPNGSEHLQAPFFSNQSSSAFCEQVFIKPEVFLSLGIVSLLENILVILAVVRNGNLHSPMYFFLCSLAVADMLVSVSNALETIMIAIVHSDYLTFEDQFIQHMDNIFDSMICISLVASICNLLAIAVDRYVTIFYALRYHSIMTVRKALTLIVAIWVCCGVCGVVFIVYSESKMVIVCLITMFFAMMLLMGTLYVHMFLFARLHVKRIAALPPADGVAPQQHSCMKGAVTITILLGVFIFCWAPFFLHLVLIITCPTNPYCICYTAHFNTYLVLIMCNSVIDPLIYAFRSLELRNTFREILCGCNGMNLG
Sequence of D(1A) dopamine receptor (P21728 whole entry): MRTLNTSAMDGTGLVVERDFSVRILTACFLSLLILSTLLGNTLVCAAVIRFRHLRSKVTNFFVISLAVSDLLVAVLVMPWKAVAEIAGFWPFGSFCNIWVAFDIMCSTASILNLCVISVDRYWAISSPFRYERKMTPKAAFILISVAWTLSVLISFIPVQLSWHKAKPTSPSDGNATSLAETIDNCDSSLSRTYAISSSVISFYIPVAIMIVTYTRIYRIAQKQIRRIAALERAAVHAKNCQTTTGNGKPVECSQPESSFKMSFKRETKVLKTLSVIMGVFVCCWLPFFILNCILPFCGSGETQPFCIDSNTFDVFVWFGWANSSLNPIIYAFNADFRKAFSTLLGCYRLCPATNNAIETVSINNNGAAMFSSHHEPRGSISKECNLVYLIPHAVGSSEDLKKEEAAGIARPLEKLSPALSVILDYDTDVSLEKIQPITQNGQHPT
Sequence of Vasopressin V1a receptor (P37288 whole entry): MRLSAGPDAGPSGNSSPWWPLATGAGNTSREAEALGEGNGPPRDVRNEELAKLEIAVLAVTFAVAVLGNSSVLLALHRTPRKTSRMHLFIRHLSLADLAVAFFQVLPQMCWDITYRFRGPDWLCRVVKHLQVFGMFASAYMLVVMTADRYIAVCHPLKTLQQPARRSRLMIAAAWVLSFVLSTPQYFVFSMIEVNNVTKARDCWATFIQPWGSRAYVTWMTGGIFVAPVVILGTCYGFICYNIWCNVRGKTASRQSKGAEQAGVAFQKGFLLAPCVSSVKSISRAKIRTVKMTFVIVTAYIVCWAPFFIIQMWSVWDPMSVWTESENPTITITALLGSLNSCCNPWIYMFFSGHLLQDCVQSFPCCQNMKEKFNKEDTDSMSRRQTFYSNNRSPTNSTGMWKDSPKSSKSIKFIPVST

Regarding `CC(/C=C1\SC(=S)N(CC(=O)O)C1=O)=C\c1ccccc1`, the half-maximal activity concentration (AC50) was > 30 µM in [1]; > 30 µM in test [2]; > 30 µM in test [3]; 6.4 µM in test [4]; 15 µM in test [5]; 1.5 µM in test [6]. Also, the concentration at half-maximal activity (AC50) in test [7] is > 30 µM; in test [8], 28 µM; in [9], 15 µM.
Consider `CC1(C)S[C@@H]2[C@H](NC(=O)[C@H](N)c3ccc(O)cc3)C(=O)N2[C@H]1C(=O)O` [AMOXICILLIN], for which the AC50 in test [1], in test [2], in [3], in test [4], in [5] and in test [6] was > 30 µM each time. Moreover, the AC50 in [7], in [8] and in test [9] was > 30 µM in each case.
Regarding `O=C1CN2Cc3c(ccc(Cl)c3Cl)N=C2N1` [ANAGRELIDE], the AC50 is > 30 µM in test [1]; > 30 µM in test [2]; > 10 µM in test [3]; > 30 µM in test [4]; > 30 µM in [5]; > 30 µM in [6]. Moreover, the half-maximal activity concentration (AC50) in [7] was > 10 µM; in test [8], > 30 µM; in test [9], > 30 µM.
Take `CCc1oc2ccccc2c1C(=O)c1cc(Br)c(O)c(Br)c1` [BENZBROMARONE]: the half-maximal activity concentration (AC50) was > 30 µM in [2]; 1.53 µM in test [3]; > 30 µM in [4]; > 30 µM in test [5]; 16 µM in test [6]; > 30 µM in test [7]. The AC50 in [8] and in test [9] was > 30 µM in each case.
Regarding `C=C(C)[C@@H]1CCC(C)=C[C@H]1c1c(O)cc(CCCCC)cc1O` [CANNABIDIOL], the AC50 in [2] is 25 µM; in test [3], 2.28 µM; in test [4], > 30 µM; in test [5], 17.3 µM; in test [6], > 30 µM; in [7] it was > 30 µM. The AC50 in [8] and in test [9] was > 30 µM in each case.
As to `CO/N=C(\C(=O)N[C@@H]1C(=O)N2C(C(=O)O)=C(COC(N)=O)CS[C@H]12)c1ccco1` [CEFUROXIME], the AC50 in [1], in [2], in [3], in test [4], in test [5] and in [6] was > 30 µM each time. Further, the AC50 in [7], in test [8] and in test [9] was > 30 µM each time.
With `[H]/N=C(\N/C(=N/[H])NCCCCCCNC(=N)NC(=N)Nc1ccc(Cl)cc1)Nc1ccc(Cl)cc1` [CHLORHEXIDINE], the AC50 in [1] is 2.2 µM; in test [2], 0.49 µM; in [3] it was 1.26 µM; in test [4], 5.4 µM; in [5], 0.409 µM; in [6], > 10 µM. Besides, the AC50 was > 10 µM in test [7], 14.7 µM in [8] and > 30 µM in test [9].
In the case of `Clc1cccc(Cl)c1N=C1NCCN1` [CLONIDINE], the AC50 in test [1] is > 30 µM; in test [2], > 30 µM; in test [3], > 10 µM; in test [4], > 30 µM; in test [5] it was > 10 µM; in test [6], > 30 µM. The values for the AC50 in [7], in test [8] and in test [9] were > 10 µM, > 10 µM and > 30 µM, respectively.
On to `COC(=O)[C@H](c1ccccc1Cl)N1CCc2sccc2C1` [CLOPIDOGREL], for which the AC50 in test [1] is > 30 µM; in [2], > 30 µM; in test [3], 2 µM; in [4], > 30 µM; in test [5], > 30 µM; in test [6], > 30 µM. Further, the AC50 in test [7] was 19 µM; in test [8] it was > 30 µM; in test [9], > 30 µM.
Take `CN1C[C@H](C(=O)N[C@]2(C)O[C@@]3(O)[C@@H]4CCCN4C(=O)[C@H](Cc4ccccc4)N3C2=O)C[C@@H]2c3cccc4[nH]cc(c34)C[C@H]21` [DIHYDROERGOTAMINE]: the AC50 in test [1] was > 30 µM; in test [2], > 30 µM; in test [4], 0.5 µM; in [5], > 30 µM; in test [7] it was 0.358 µM; in [8] it was > 30 µM. Also, the AC50 in test [9] is > 30 µM.
Regarding `CNCC[C@H](Oc1cccc2ccccc12)c1cccs1` [DULOXETINE], the AC50 in test [1] was > 30 µM; in test [2], 22.7 µM; in test [3], 12 µM; in test [4], 13 µM; in test [6], > 30 µM; in test [7], > 10 µM. In addition, the AC50 in test [8] and in test [9] was > 30 µM throughout.
Turning to `C[C@H]1Oc2cc(cnc2N)-c2c(nn(C)c2C#N)CN(C)C(=O)c2ccc(F)cc21` [LORLATINIB], the AC50 in test [2] is > 30 µM; in test [3], 14 µM; in test [4] it was > 30 µM; in test [5], > 30 µM; in test [6], > 30 µM; in [7], > 30 µM. Moreover, the AC50 in test [8] and in test [9] was > 30 µM throughout.
In the case of `Cc1cnc(NC(=O)C2=C(O)c3ccccc3S(=O)(=O)N2C)s1` [MELOXICAM], the AC50 was > 30 µM in test [1]; > 30 µM in test [2]; > 10 µM in [3]; > 10 µM in [4]; > 10 µM in test [5]; > 30 µM in test [6]. Moreover, the AC50 is > 10 µM in [7], > 10 µM in test [8] and > 30 µM in [9].
`CNCCC=C1c2ccccc2CCc2ccccc21` [NORTRIPTYLINE]: the half-maximal activity concentration (AC50) was > 30 µM in [1]; 11 µM in test [2]; 0.73 µM in test [3]; > 30 µM in test [6]; > 30 µM in [7]; > 30 µM in [8]. Also, in [9], the concentration at half-maximal activity (AC50) was > 30 µM.
Consider `CCOc1cc(CC(=O)N[C@@H](CC(C)C)c2ccccc2N2CCCCC2)ccc1C(=O)O` [REPAGLINIDE], for which the AC50 in [2], in test [3], in test [4], in test [5], in test [6] and in [7] was > 30 µM in each case. Besides, the AC50 in test [8] and in test [9] was > 30 µM each time.
`CCCN(CCC)CCc1cccc2c1CC(=O)N2` [ROPINIROLE]: the AC50 in test [1], in test [2], in test [4], in test [5], in test [6] and in test [7] was > 30 µM throughout. The AC50 in [8] and in [9] was > 30 µM in each case.
Turning to `CC(C)N(CCCCOCC(=O)NS(C)(=O)=O)c1cnc(-c2ccccc2)c(-c2ccccc2)n1` [SELEXIPAG], the AC50 was > 30 µM in test [1]; > 30 µM in [2]; 12 µM in [3]; > 30 µM in test [4]; > 30 µM in test [5]; > 30 µM in [7]. Also, the AC50 in test [8] and in test [9] was > 30 µM each time.

Usually AC50 stands for the midpoint of the concentration-response curve, whichever way the signal moves. Low values mean activity at low concentration, high ones activity only at high concentration.
